In paper PMC3542614 (Cell Death & Disease, 2012):
pIC50: −log10 of the molar value.

Experiments:
Bcl-B = details: cited from earlier work
Bcl-B:Bim complex = molecular target: T1, Bcl-B:Bim complex (Homo sapiens, UniProt Q9HD36, C138S/C30S); assay: SPR competition assay: displacement of Bim-BH3 from the Bcl-B:6His-Bim complex; assay type: binding; details: BH3 peptides between 1.25 and 40 μM
T1 sequence (Q9HD36 12-177 C30S/C138S): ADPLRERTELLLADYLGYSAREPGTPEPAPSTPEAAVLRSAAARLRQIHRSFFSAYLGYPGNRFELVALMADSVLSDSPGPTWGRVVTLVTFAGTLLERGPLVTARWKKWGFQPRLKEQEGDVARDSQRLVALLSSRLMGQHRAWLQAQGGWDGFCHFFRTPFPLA

[1] = molecular target: Bcl-BΔC27 (C-terminally truncated Bcl-B, residues A2–A167, cysteines 20 and 128 mutated to serine) (human); assay: SPR

Compound | Binding to Bcl-B (Bcl-B) | Displacement of Bim from the Bcl-B:Bim complex (Bcl-B:Bim complex) | pIC50 [1]
CN(C)CC[C@H](CSc1ccccc1)Nc1ccc(S(=O)(=O)NC(=O)c2ccc(N3CCN(Cc4ccccc4-c4ccc(Cl)cc4)CC3)cc2)cc1[N+](=O)[O-] [ABT-737] | does not bind Bcl-B | failed to displace Bim | 
Bik-BH3 peptide |  |  | 3.95
Bax-BH3 peptide |  |  | 5.18
